Reference: US10221163B2 (priority 2015, dated 2019)
Like-named read-outs stand apart in the source and are kept apart here.

Tests used:
[1] = test system: Klebsiella pneumoniae expressing VIM-1 (IHMA599644); type: cell-based; conditions: with imipenem 1 μg/ml; 95% inhibition of bacterial growth
How it was run: (§1)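 Colonies grown overnight on blood agar at 35° C were suspended in saline, diluted 1:100 into 1.1×CAMHB and dispensed. Imipenem was added to 1 μg/ml, then test compound. After 22 hours to 24 hours at 35° C, absorbance was recorded.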

[2] = test system: Escherichia coli expressing NDM-1 (CLB30005, CLB30016); type: cell-based; conditions: with imipenem 1 μg/ml; 95% inhibition of bacterial growth
How it was run: as §1

[3] = test system: Serratia marcescens expressing IMP-1 (CL5741); type: cell-based; conditions: with imipenem 1 μg/ml; 95% inhibition of bacterial growth
How it was run: as §1

[4] = test system: Pseudomonas aeruginosa MB9798 vs MB9799; conditions: ratio MITC95 PA_9798/MITC95 PA_9799
How it was run: (§2)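 Microbroth MIC tests in PAO1-background strains with fixed imipenem and/or ceftazidime, usually at the CLSI breakpoint, plus fixed class A/C β-lactamase inhibitor against AmpC. MBL inhibitor titrated; concentration restoring susceptibility recorded and compared as fold difference between efflux+ MB9798 and efflux− MB9799.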

VIM-1 = VIM-1 (Pseudomonas aeruginosa (strain ATCC 15692 / DSM 22644 / CIP 104116 / JCM 14847 / LMG 12228 / 1C / PRS 101 / PAO1), UniProt A0A0F7KYQ8); assay: biochemical; conditions: CCF2-FA substrate, 30 pM enzyme, 2 hours at 25° C.
How it was run: (§3)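 Test compound, enzyme and the FRET cephalosporin substrate CCF2-FA are incubated together for 2 hours at 25° C. Cleavage is followed by fluorescence, and IC50 values are derived from semi-logarithmic inhibition curves fitted with a 4-parameter model.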

NDM-1 = NDM-1 (Klebsiella pneumoniae, UniProt C7C422); assay: biochemical; type: biochemical; conditions: fluorescence assay, CCF2-FA substrate, 1 pM enzyme, 2 hours at 25° C.; read-out: NDM-1 IC50
NDM-1, sequence (C7C422 whole entry, looked up, species assumed): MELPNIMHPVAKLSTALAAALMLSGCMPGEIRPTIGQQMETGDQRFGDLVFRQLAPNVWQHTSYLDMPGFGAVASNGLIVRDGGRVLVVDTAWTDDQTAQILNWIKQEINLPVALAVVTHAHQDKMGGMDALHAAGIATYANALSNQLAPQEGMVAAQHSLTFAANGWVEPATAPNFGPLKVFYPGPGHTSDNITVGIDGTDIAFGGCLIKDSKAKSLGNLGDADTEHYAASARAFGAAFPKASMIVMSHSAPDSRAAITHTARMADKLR
How it was run: as §3

IMP-1 = IMP-1 (Serratia marcescens, UniProt P52699); assay: biochemical; type: biochemical; conditions: fluorescence assay, CCF2-FA substrate, 2 pM enzyme, 2 hours at 25° C.; read-out: IMP-1 IC50
IMP-1, sequence (P52699 whole entry, looked up, species assumed): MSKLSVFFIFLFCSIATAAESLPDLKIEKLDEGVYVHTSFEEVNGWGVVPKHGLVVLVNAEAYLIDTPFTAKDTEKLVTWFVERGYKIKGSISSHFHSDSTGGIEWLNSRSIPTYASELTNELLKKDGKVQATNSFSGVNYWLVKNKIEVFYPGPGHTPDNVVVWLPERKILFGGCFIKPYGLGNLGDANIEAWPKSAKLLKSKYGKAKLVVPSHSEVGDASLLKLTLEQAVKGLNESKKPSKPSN
How it was run: as §3

[5] = test system: Pseudomonas aeruginosa efflux− (MB9799), IMP-1; type: cell-based; conditions: concentration restoring susceptibility to imipenem at 2 μg/mL in the presence of a class A, C, D serine β-lactamase inhibitor closely related to relebactam
How it was run: as §2

[6] = test system: Pseudomonas aeruginosa efflux+ (MB9798), IMP-1; type: cell-based; conditions: concentration restoring susceptibility to imipenem at 2 μg/mL in the presence of a class A, C, D serine β-lactamase inhibitor closely related to relebactam
How it was run: as §2

[7] = fluorescence assay, read-out: VIM-1 IC50

Row | Structure (SMILES) | Klebsiella pneumoniae expressing VIM-1 (IHMA599644) MITC95 [1] | Escherichia coli expressing NDM-1 (CLB30016) MITC95 [2] | Serratia marcescens expressing IMP-1 (CL5741) MITC95 [3] | Efflux ratio [4] | IC50 (VIM-1; [7]) | IC50 (NDM-1) | IC50 (IMP-1) | P. aeruginosa expressing IMP-1, efflux − (MB9799) MITC95 [5] | P. aeruginosa expressing IMP-1, efflux + (MB9798) MITC95 [6] | IC50 (VIM-1; VIM-1 IC50, fluorescence assay)
1 | CN1CCN(S(=O)(=O)c2ccc(-c3cccc4sc(N)nc34)c(-c3nnn[nH]3)c2S(N)(=O)=O)CC1 [Example 27, 3-(2-amino-1,3-benzothiazol-4-yl)-6-[(4-methylpiperazin-1-yl)sulfonyl]-2-(1H-tetrazol-5-yl)benzenesulfonamide] | 25 µM | 12.5 µM | 6.25 µM | 2.00 | 1.92 nM | 0.825 nM | 1.59 nM | 6.25 µM | 12.5 µM | –
2 | Nc1nc2c(-c3ccc(S(=O)(=O)N4CCNC(=O)C4)c(S(N)(=O)=O)c3-c3nnn[nH]3)cccc2s1 [Example 28, 3-(2-amino-1,3-benzothiazol-4-yl)-6-[(3-oxopiperazin-1-yl)sulfonyl]-2-(1H-tetrazol-5-yl)benzenesulfonamide] | 12.5 µM | 25 µM | 6.25 µM | 4.00 | 0.726 nM | 0.646 nM | 0.646 nM | 3.125 µM | 12.5 µM | –
3 | Nc1nc2c(-c3ccc(S(=O)(=O)N4CCOCC4)c(S(N)(=O)=O)c3-c3nnn[nH]3)cccc2s1 [Example 29, 3-(2-amino-1,3-benzothiazol-4-yl)-6-(morpholin-4-ylsulfonyl)-2-(1H-tetrazol-5-yl)benzenesulfonamide] | 25 µM | 25 µM | 6.25 µM | 16.00 | – | 1.35 nM | 2.08 nM | 3.125 µM | 50 µM | 3.06 nM
4 | Nc1nc2c(-c3ccc(S(=O)(=O)NCCC4CNC4)c(S(N)(=O)=O)c3-c3nnn[nH]3)cccc2s1 [Example 30, 4-(2-amino-1,3-benzothiazol-4-yl)-N1-(2-azetidin-3-ylethyl)-3-(1H-tetrazol-5-yl)benzene-1,2-disulfonamide] | 6.25 µM | 6.25 µM | 3.125 µM | 1.00 | – | 0.0686 nM | 0.369 nM | 1.563 µM | 1.563 µM | 0.308 nM
5 | CNCCNS(=O)(=O)c1ccc(-c2cccc3sc(N)nc23)c(-c2nnn[nH]2)c1S(N)(=O)=O [Example 31, 4-(2-amino-1,3-benzothiazol-4-yl)-N^1-[2-(methylamino)ethyl]-3-(1H-tetrazol-5-yl)benzene-1,2-disulfonamide] | 6.25 µM | 9.375 µM | 2.344 µM | 1.50 | 8.18 nM | 2.59 nM | 2.02 nM | 1.563 µM | 2.344 µM | –
6 | Nc1nc2c(-c3ccc(S(=O)(=O)NC4CCNCC4)c(S(N)(=O)=O)c3-c3nnn[nH]3)cccc2s1 [Example 32, 4-(2-amino-1,3-benzothiazol-4-yl)-N1-piperidin-4-yl-3-(1H-tetrazol-5-yl)benzene-1,2-disulfonamide] | 3.125 µM | 6.25 µM | 1.563 µM | 0.50 | – | 0.069 nM | 0.34 nM | 1.563 µM | 0.7813 µM | 0.296 nM
7 | COc1ccnc(CNS(=O)(=O)c2ccc(-c3cccc4sc(N)nc34)c(-c3nnn[nH]3)c2S(N)(=O)=O)n1 [Example 34, 4-(2-amino-1,3-benzothiazol-4-yl)-N1-[(4-methoxypyrimidin-2-yl)methyl]-3-(1H-tetrazol-5-yl)benzene-1,2-disulfonamide] | 50 µM | 25 µM | 6.25 µM | 4.00 | 0.329 nM | 0.0816 nM | 0.429 nM | 6.25 µM | 25 µM | –
8 | Nc1nc2c(-c3ccc(S(=O)(=O)NC4CCc5nccn5C4)c(S(N)(=O)=O)c3-c3nnn[nH]3)cccc2s1 (stereo not drawn) [Example 35, 4-(2-amino-1,3-benzothiazol-4-yl)-N1-(5,6,7,8-tetrahydroimidazo[1,2-a]pyridin-6-yl)-3-(1H-tetrazol-5-yl)benzene-1,2-disulfonamide] | 12.5 µM | 12.5 µM | 3.125 µM | 2.00 | 0.256 nM | 0.0508 nM | 0.349 nM | 3.125 µM | 6.25 µM | –
9 | CN(C)C(=O)CNS(=O)(=O)c1ccc(-c2cccc3sc(N)nc23)c(-c2nnn[nH]2)c1S(N)(=O)=O [Example 36, N^2-{[4-(2-amino-1,3-benzothiazol-4-yl)-2-sulfamoyl-3-(1H-tetrazol-5-yl)phenyl]sulfonyl}-N,N-dimethylglycinamide] | 12.5 µM | 25 µM | 3.125 µM | 1.00 | – | 0.0369 nM | 0.247 nM | 3.125 µM | 3.125 µM | 0.166 nM
10 | Nc1nc2c(-c3ccc(S(=O)(=O)NCC4(CO)CC4)c(S(N)(=O)=O)c3-c3nnn[nH]3)cccc2s1 [Example 37, 4-(2-amino-1,3-benzothiazol-4-yl)-N1-{[1-(hydroxymethyl)cyclopropyl]methyl}-3-(1H-tetrazol-5-yl)benzene-1,2-disulfonamide] | 12.5 µM | 12.5 µM | 3.125 µM | 1.00 | – | 0.00769 nM | 0.287 nM | 6.25 µM | 6.25 µM | 0.198 nM
11 | CN1CC2(CCN(S(=O)(=O)c3ccc(-c4cccc5sc(N)nc45)c(-c4nnn[nH]4)c3S(N)(=O)=O)C2)C1 [Example 38, 3-(2-amino-1,3-benzothiazol-4-yl)-6-[(2-methyl-2,6-diazaspiro[3.4]oct-6-yl)sulfonyl]-2-(1H-tetrazol-5-yl)benzenesulfonamide] | 12.5 µM | 12.5 µM | 3.125 µM | 1.00 | – | 0.424 nM | 1.43 nM | 3.125 µM | 3.125 µM | 2.52 nM
